Assays:
DG-75 = experiment: cells; format: functional, cell-based, Homo sapiens; settings: Homo sapiens, DG-75;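 note: growth inhibition of DG-75 cells, read out with a cell viability assay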
Description: SANGER: Inhibition of human DG-75 cell growth in a cell viability assay.

ECC4 = experiment: cells; format: functional, cell-based, Homo sapiens; settings: Homo sapiens, ECC4;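 note: growth inhibition of ECC4 cells, read out with a cell viability assay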
Description: SANGER: Inhibition of human ECC4 cell growth in a cell viability assay.

GDM-1 = experiment: cells; format: functional, cell-based, Homo sapiens; settings: Homo sapiens, GDM-1;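 note: cell viability readout used to measure growth inhibition of human GDM-1 cells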
Description: SANGER: Inhibition of human GDM-1 cell growth in a cell viability assay.

IST-SL2 = experiment: cells; format: functional, cell-based, Homo sapiens; settings: Homo sapiens, IST-SL2;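 note: growth inhibition of human IST-SL2 cells, read out by a cell viability assay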
Description: SANGER: Inhibition of human IST-SL2 cell growth in a cell viability assay.

JIYOYE = experiment: cells; format: functional, cell-based, Homo sapiens; settings: Homo sapiens, JIYOYE
Description: SANGER: Inhibition of human JiyoyeP-2003 cell growth in a cell viability assay.

L-540 = experiment: cells; format: functional, cell-based, Homo sapiens; settings: Homo sapiens, L-540;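 note: growth inhibition of the human L-540 cell line, read out with a viability assay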
Description: SANGER: Inhibition of human L-540 cell growth in a cell viability assay.

NCI-H187 = experiment: cells; format: functional, cell-based, Homo sapiens; settings: Homo sapiens, NCI-H187;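 note: growth inhibition of NCI-H187 cells, read out as cell viability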
Description: SANGER: Inhibition of human NCI-H187 cell growth in a cell viability assay.

P31-FUJ = experiment: cells; format: functional, cell-based, Homo sapiens; settings: Homo sapiens, P31-FUJ;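 note: growth inhibition of P31-FUJ cells, read out with a viability assay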
Description: SANGER: Inhibition of human P31-FUJ cell growth in a cell viability assay.

RPMI 8402 = experiment: SANGER: Inhibition of human RPMI-8402 cell growth in a cell viability assay.; format: functional, cell-based; settings: Homo sapiens, RPMI 8402; read-out: IC50
BL-70 = experiment: SANGER: Inhibition of human BL-70 cell growth in a cell viability assay.; format: functional, cell-based; settings: Homo sapiens, BL-70
THP-1 = experiment: cells; format: functional, cell-based, Homo sapiens; settings: Homo sapiens, THP-1;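 note: growth inhibition of THP-1 cells, read out via a cell viability assay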
Description: SANGER: Inhibition of human THP-1 cell growth in a cell viability assay.

YT = experiment: cells; format: functional, cell-based, Homo sapiens; settings: Homo sapiens, YT
Description: SANGER: Inhibition of human YT cell growth in a cell viability assay.

BOKU = experiment: cells; format: functional, cell-based, Homo sapiens; settings: Homo sapiens, BOKU
Description: SANGER: Inhibition of human BOKU cell growth in a cell viability assay.

Row | Structure (SMILES) | IC50 (DG-75) [µM] | IC50 (ECC4) [µM] | IC50 (GDM-1) [µM] | IC50 (IST-SL2) [µM] | IC50 (JIYOYE) [µM] | IC50 (L-540) [µM] | IC50 (NCI-H187) [µM] | IC50 (P31-FUJ) [µM] | IC50 (RPMI 8402) [µM] | IC50 (BL-70) [µM] | IC50 (THP-1) [µM] | IC50 (YT) [µM] | IC50 (BOKU) [µM]
1 | COc1cc(N2CCN(C)CC2)ccc1Nc1ncc2c(n1)N(C)c1ccccc1C(=O)N2C | 5.61 | > 8 | > 8 | 3.82 | 6.89 | > 8 | > 8 | > 8 | 4.5 | > 8 | > 8 | 3.48 | –
2 | COc1cc(-c2nn([C@H]3CC[C@H](N4CCN(C(C)=O)CC4)CC3)c3ncnc(N)c23)ccc1NC(=O)c1cc2ccccc2n1C | > 5.12 | > 5.12 | > 5.12 | 1.16 | 4.21 | > 5.12 | > 5.12 | > 5.12 | > 5.12 | < 0.02 | > 5.12 | > 5.12 | > 5.12
3 | OCCCNc1cc(-c2ccnc(Nc3cccc(Cl)c3)n2)ccn1 | 0.111 | > 0.256 | > 0.256 | 0.0249 | 0.0322 | 0.193 | > 0.256 | > 0.256 | 0.0709 | 0.0301 | > 0.256 | > 0.256 | 0.0543
